Results on two compounds are retold here after ChEMBL document CHEMBL1201862, “PubChem BioAssay data set” (2004).

The structures appear in SMILES notation. Activity calls are given as the source filed them.

As a reminder, the IC50 is the concentration that inhibits the measured activity by half.

Format in all cases: functional
Assay [1] concerns the target T1, High affinity choline transporter 1 (Homo sapiens, UniProt Q9GZV3).
T1 sequence (Q9GZV3 whole entry): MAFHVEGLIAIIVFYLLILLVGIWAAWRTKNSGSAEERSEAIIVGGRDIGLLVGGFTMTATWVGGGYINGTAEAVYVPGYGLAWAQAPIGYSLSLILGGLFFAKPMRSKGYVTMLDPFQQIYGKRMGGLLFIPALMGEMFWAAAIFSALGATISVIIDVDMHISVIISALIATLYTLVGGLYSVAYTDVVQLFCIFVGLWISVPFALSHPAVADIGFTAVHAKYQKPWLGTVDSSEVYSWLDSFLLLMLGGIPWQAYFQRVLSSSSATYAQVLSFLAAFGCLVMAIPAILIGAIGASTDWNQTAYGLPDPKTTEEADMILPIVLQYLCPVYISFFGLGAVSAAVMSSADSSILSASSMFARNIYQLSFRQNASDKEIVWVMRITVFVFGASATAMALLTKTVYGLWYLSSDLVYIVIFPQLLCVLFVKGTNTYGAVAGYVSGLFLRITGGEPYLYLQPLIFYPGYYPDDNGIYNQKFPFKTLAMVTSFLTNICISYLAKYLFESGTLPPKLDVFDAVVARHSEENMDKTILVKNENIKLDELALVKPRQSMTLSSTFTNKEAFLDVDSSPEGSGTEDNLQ
The assay can be described thus: human choline transporter blockers, potency – cell-based, 5-point CRC, membrane potential dye, dose response (AID 504840).

The target in assay [2] is T1, High affinity choline transporter 1. In words: human choline transporter blockers, potency – cell-based, 10-point CRC, membrane potential dye, dose response (AID 588401).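 Further: membrane potential dye fluorescence of choline-evoked depolarization via CHT.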
Assay [3] has as its target T2, Neuropeptides B/W receptor type 1 (Homo sapiens, UniProt P48145).
T2 sequence (P48145 whole entry): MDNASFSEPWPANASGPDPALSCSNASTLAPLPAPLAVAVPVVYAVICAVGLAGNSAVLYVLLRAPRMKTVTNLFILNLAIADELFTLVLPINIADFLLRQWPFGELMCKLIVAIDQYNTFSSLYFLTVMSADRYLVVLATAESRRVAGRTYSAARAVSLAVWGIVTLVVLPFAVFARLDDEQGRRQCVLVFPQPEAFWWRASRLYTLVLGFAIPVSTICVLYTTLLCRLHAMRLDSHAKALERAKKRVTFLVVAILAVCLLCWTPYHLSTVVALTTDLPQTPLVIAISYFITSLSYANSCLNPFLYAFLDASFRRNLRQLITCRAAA
The assay can be described thus: human NPBW1 receptor blockade, IC50 – cell-based, fluorescence, dose response, set 5, late-stage follow-up (AID 588566).

The target in assay [4] is Melanin-concentrating hormone receptor 1 (Homo sapiens, UniProt Q99705). In words: Late-stage fluorescence-based counterscreen for antagonists of the G-protein coupled receptor 7 (GPR7): cell-based dose response assay to identify antagonists of the melanin-concentrating hormone receptor 1 (MCHR1) Set 5. (In general: A counterscreen serves to expose hits that act by an unwanted route or on another target.)
Chain of Melanin-concentrating hormone receptor 1 (Q99705 whole entry): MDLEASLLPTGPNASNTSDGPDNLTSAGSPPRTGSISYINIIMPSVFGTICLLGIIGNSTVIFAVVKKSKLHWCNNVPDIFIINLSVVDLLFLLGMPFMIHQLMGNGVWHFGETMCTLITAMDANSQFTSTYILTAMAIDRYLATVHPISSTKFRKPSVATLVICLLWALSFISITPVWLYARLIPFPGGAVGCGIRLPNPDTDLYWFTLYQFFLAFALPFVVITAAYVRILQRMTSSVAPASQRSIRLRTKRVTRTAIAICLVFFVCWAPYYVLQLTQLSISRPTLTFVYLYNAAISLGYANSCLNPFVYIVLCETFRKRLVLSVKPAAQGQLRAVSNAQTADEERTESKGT

Turning to `CCOc1ccccc1Nc1ccc2nonc2c1[N+](=O)[O-]`, the IC50 was 7.88 µM (active) in assay [1] and 4.28 µM (active) in assay [2].
For the compound `Cc1ccc(Oc2c(Cl)cnn(Cc3cccc4ccccc34)c2=O)cc1`, the IC50 was 2.57 µM (active) in assay [3] and 8.23 µM (active) in assay [4].
